Experimental findings from patent US9085599B2, “2′allene-substituted nucleoside derivatives” (priority 2011, dated 2015) are described below.

Each structure is given as a SMILES string. Read-outs that look alike come from different tables or passages of the source.

As usually defined, the EC50 is the midpoint of the concentration-response curve.

For assay [1], the system named is HCV replicon RNA, genotype 1a (strain H77). Put plainly: HCV replicon assay qRT-PCR, genotype 1a (Huh-1a7 replicon cell line). Type of assay: cell-based. Particulars: Hepatitis C virus, read-out: 1a EC50. From the text: (§1) HCV replicon cell lines (kindly provided by R. Bartenschlager) isolated from colonies as described by Lohman et al. (Lohman et al. (1999) Science 285: 110-113, expressly incorporated by reference in its entirety) and used for all experiments. One of the HCV replicon cell lines (strain Con1, genotype 1b) has the nucleic acid sequence set forth in EMBL Accession No.: AJ242651, the coding sequence of which is from nucleotides 1801 to 8406. Another replicon cell line (strain H77, genotype 1a) was constructed as described by Yi et. al. (Yi et. al. (2004) Journal of Virology 78(15):7904-15). […]
(§2) EC50 values of single agent compounds were determined by HCV RNA detection using quantitative RT-PCR, according to the manufacturer's instructions, with a TAQMAN® One-Step RT-PCR Master Mix Reagents Kit (Cat#AB 4309169, Applied Biosystems) on an ABI Model 7500 thermocycler. EC50 values of combinations are similarly determined by HCV RNA detection using quantitative RT-PCR. The TAQMAN primers to use for detecting and quantifying HCV RNA obtained from Integrated DNA Technologies. HCV RNA is normalized to GAPDH RNA levels in drug-treated cells, which is detected and quantified using the Human GAPDH Endogenous Control Mix (Applied Biosystems, AB 4310884E). […] Chemical agent cytotoxicity is evaluated using an MTS assay according to the manufacturer's directions (Promega). […]

The subject of assay [2] is HCV replicon RNA, genotype 1b (strain Con1). Put plainly: HCV replicon assay qRT-PCR, genotype 1b (SGR 11-7 replicon cell line). In kind it is cell-based. Particulars: Hepatitis C virus, read-out: 1b EC50.
Excerpt: as §1, §2

For the compound `C=C=C[C@@]1(O)C(O)[C@@H](COP(=O)(N[C@@H](C)C(=O)OC)Oc2cccc3ccccc23)O[C@H]1n1ccc(=O)[nH]c1=O` (stereo partly shown) [Example 2], the EC50 in assay [1] and in assay [2] was 1 to 10 µM in each case.

Take `C=C=C[C@@]1(O)C(O)[C@@H](CO)O[C@H]1n1ccc(=O)[nH]c1=O` (stereo partly shown) [Example 1]: the EC50 in assay [1] (Genotype-1a replicon, HCV RNA by qRT-PCR normalized to GAPDH RNA) was above 10 µM; in assay [2] (Genotype-1b replicon, HCV RNA by qRT-PCR normalized to GAPDH RNA), above 10 µM.
